How the values were obtained:
[1] = test system: Diabrotica undecimrunctata howardi, 3rd instar southern corn rootworm; test: Evaluation against 3rd instar southern corn rootworm, treated talc/soil jar test, mortality after 5 days; type: in vivo, Diabrotica undecimpunctata howardi; settings: mortality rating 0-9 after 5 days in soil
Experimental: (§1) Test solutions are prepared by dissolving the test compound in a 35% acetone in water mixture to give a concentration of 10,000 ppm. Subsequent dilutions are made with water as needed.
Diabrotica undecimrunctata howardi, 3rd instar southern corn rootworm
(§2) One cc of fine talc is placed in a 30 mL wide-mouth screw-top glass jar. One mL of the appropriate acetone test solution is pipetted onto the talc so as to provide 1.25 mg, 0.25 mg or 0.025 mg of active ingredient per jar. The jars are set under a gentle air flow until the acetone is evaporated. The dried talc is loosened, 1 cc of millet seed is added to serve as food for the insects and 25 mL of moist soil is added to each jar. The jar is capped and the contents thoroughly mixed mechanically. Following this, ten 3rd instar rootworms are added to each jar and the jars are loosely capped to allow air exchange for the larvae. The treatments are held for 5 days when mortality counts are made. Missing larvae are presumed dead, since they decompose rapidly and can not be found.

[2] = test system: Diabrotica virgifera virgifera Leconte, 3rd instar western corn rootworm; test: Evaluation against 3rd instar western corn rootworm, treated talc/soil jar test, mortality after 5 days; type: in vivo; settings: mortality rating 0-9 after 5 days in soil
Experimental: as §1
Diabrotica virgifera virgifera Leconte, 3rd instar western corn rootworm
as §2

## CC(C)/C(=N\O)C(C)(C)C(=O)Nc1ccc(C(F)(F)F)cc1 [Compound 10, α,α,α-Trifluoro-2,2,4-trimethyl-3-oxo-p-valerotoluidide, 3-oxime]
[1]
  Southern Corn Rootworm (50 ppm) rating: 7.0

## CC(C)S(=O)(=O)C(C)(C)C(=O)Nc1ccc(C(F)(F)F)cc1 [Compound 13, α,α,α-Trifluoro-2-(isopropylsulfonyl)-2-methyl-p-propionotoluidide]
[1]
  Southern Corn Rootworm (1 ppm) rating: 3.0
  Southern Corn Rootworm (10 ppm) rating: 9.0
  Southern Corn Rootworm (50 ppm) rating: 9.0

## CC(C)C(=O)C(C)(C)C(=O)N(C(=O)c1ccc(C(F)(F)F)cc1)c1ccc(C(F)(F)F)cc1 [Compound 6, α,α,α,α′,α′,α′-Hexafluoro-N-(2,2,4-trimethyl-3-oxovaleryl)-p-tolu-p-toluidide]
[1]
  Southern Corn Rootworm (1 ppm) rating: 2.0
  Southern Corn Rootworm (10 ppm) rating: 9.0
  Southern Corn Rootworm (50 ppm) rating: 9.0

## CC(=O)OC(C(C)C)C(C)(C)C(=O)Nc1ccc(C(F)(F)F)cc1 (stereo not drawn) [Compound 9, α,α,α-Trifluoro-3-hydroxy-2,2,4-trimethyl-p-valerotoluidide, acetate (ester)]
[1]
  Southern Corn Rootworm (1 ppm) rating: 0.0
  Southern Corn Rootworm (10 ppm) rating: 8.3
  Southern Corn Rootworm (50 ppm) rating: 8.3

## CC(C)C(=O)C(C)(C)C(=O)N(C(=O)c1c(F)cccc1F)c1ccc(C(F)(F)F)cc1 [Compound 8, α,α,α,2,6-Pentafluoro-N-(2,2,4#trimethyl-3 oxovaleryl)-p-benzotoluidide]
[1]
  Southern Corn Rootworm (1 ppm) rating: 0.0
  Southern Corn Rootworm (10 ppm) rating: 0.0
  Southern Corn Rootworm (50 ppm) rating: 4.0

## CC(C)C(=O)C(C)(C)C(=O)N(C(=O)c1ccc(Cl)cc1)c1ccc(C(F)(F)F)cc1 [Compound 7, 4-Chloro-α,α,α-trifluoro-N-(2,2,4-trimethyl-3 oxovaleryl)-p-benzotoluidide]
[1]
  Southern Corn Rootworm (1 ppm) rating: 0.0
  Southern Corn Rootworm (10 ppm) rating: 9.0
  Southern Corn Rootworm (50 ppm) rating: 9.0

## CC(C)(C(=O)Nc1ccc(C(F)(F)F)cc1)C(=O)C(C)(C)c1ccccc1 [Compound 11, α,α,α-Trifluoro-2,2,4-trimethyl-3-oxo-4-phenyl-p-valerotoluidide]
[1]
  Southern Corn Rootworm (50 ppm) rating: 6.0

## CC(C)C(=O)C(C)(C)C(=O)N(C)c1ccc(Cl)cc1 [Compound 2, 4′-Chloro-N,2,2,4-tetramethyl-3-oxo-valeranilide]
[1]
  Southern Corn Rootworm (1 ppm) rating: 0.0
  Southern Corn Rootworm (10 ppm) rating: 0.0
  Southern Corn Rootworm (50 ppm) rating: 3.5

## CC(=O)OC(C(C)C)C(C)(C)C(=O)Nc1ccc(Cl)cc1 (centres unmarked) [Compound 14, 4′-chloro-3-hydroxy-2,2,4-trimethylvaleranilide, acetate (ester)]
[1]
  Southern Corn Rootworm (1 ppm) rating: 9.0
  Southern Corn Rootworm (10 ppm) rating: 9.0
  Southern Corn Rootworm (50 ppm) rating: 9.0

## CC(C)C(O)C(C)(C)C(=O)Nc1ccc(C(F)(F)F)cc1 (stereo not drawn) [Compound 4, α,α,α-Trifluoro-3-hydroxy-2,2,4-trimethyl-p-valerotoluidide]
[1]
  Southern Corn Rootworm (1 ppm) rating: 0.0
  Southern Corn Rootworm (10 ppm) rating: 0.0
  Southern Corn Rootworm (50 ppm) rating: 9.0

## CC(C)C(=O)C(C)(C)C(=O)Nc1ccc(Cl)cc1 [Compound 37, 4′-Chloro-2,2,4-trimethyl-3-oxovaleranilide]
[1]
  Southern Corn Rootworm (1 ppm) rating: 0.0
  Southern Corn Rootworm (10 ppm) rating: 9.0
  Southern Corn Rootworm (50 ppm) rating: 9.0

## C#CCOC(C(C)C)C(C)(C)C(=O)Nc1ccc(C(F)(F)F)cc1 (stereo not drawn) [Compound 19, α,α,α-Trifluoro-2,2,4-trimethyl-3-(2-propynyloxy)-p-valerotoluidide]
[2]
  Western Corn Rootworm (1 ppm) rating: 0.0
  Western Corn Rootworm (10 ppm) rating: 9.0
  Western Corn Rootworm (50 ppm) rating: 9.0

## C=CCOC(C(C)C)C(C)(C)C(=O)Nc1ccc(C(F)(F)F)cc1 (stereo not drawn) [Compound 22, 3-(Allyloxy)-α,α,α-trifluoro-2,2,4-trimethyl-p-valerotoluidide]
[2]
  Western Corn Rootworm (1 ppm) rating: 0.0
  Western Corn Rootworm (10 ppm) rating: 9.0
  Western Corn Rootworm (50 ppm) rating: 9.0

## CC(C)C(O)C(C)(C)C(=O)Nc1ccc(Cl)cc1 (centres unmarked) [Compound 3, 4′-chloro-3-hydroxy-2,2,4-trimethylvaleranilide]
[1]
  Southern Corn Rootworm (1 ppm) rating: 0.0
  Southern Corn Rootworm (10 ppm) rating: 4.0
  Southern Corn Rootworm (50 ppm) rating: 8.0

## CC(C)(C)OC(C)(C)C(=O)Nc1ccc(C(F)(F)F)cc1 [Compound 34, 2-tert-Butoxy-α,α,α-trifluoro-2-methyl-p-propionotoluidide]
[2]
  Western Corn Rootworm (1 ppm) rating: 2.0
  Western Corn Rootworm (10 ppm) rating: 9.0
  Western Corn Rootworm (50 ppm) rating: 9.0

## CC(C)OC(C(C)C)C(C)(C)C(=O)Nc1ccc(C(F)(F)F)cc1 (stereo not drawn) [Compound 23, α,α,α-Trifluoro-3-(isopropoxy)-2,2,4-trimethyl-p-valerotoluidide]
[2]
  Western Corn Rootworm (1 ppm) rating: 0.0
  Western Corn Rootworm (10 ppm) rating: 9.0
  Western Corn Rootworm (50 ppm) rating: 9.0

## CC(C)CC(C)C(=O)Nc1ccc(C(F)(F)F)c(OC(F)F)c1 (stereo not drawn) [Compound 32, 3-(Difluoromethoxy)-α,α,α-trifluoro-2,4-dimethyl-p-valerotoiuidide]
[2]
  Western Corn Rootworm (1 ppm) rating: 0.0
  Western Corn Rootworm (10 ppm) rating: 4.0
  Western Corn Rootworm (50 ppm) rating: 4.0

## CC(C)[S+]([O-])C(C)(C)C(=O)Nc1ccc(C(F)(F)F)cc1 (stereo not drawn) [Compound 12, α,α,α-Trifluoro-2-(isopropylsulfinyl)-2-methyl-p-propionotoluidide]
[2]
  Western Corn Rootworm (1 ppm) rating: 0.0
  Western Corn Rootworm (10 ppm) rating: 0.0
  Western Corn Rootworm (50 ppm) rating: 9.0
[1]
  Southern Corn Rootworm (1 ppm) rating: 8.0
  Southern Corn Rootworm (10 ppm) rating: 9.0
  Southern Corn Rootworm (50 ppm) rating: 9.0

## CCCCCCOC(C(C)C)C(C)(C)C(=O)Nc1ccc(C(F)(F)F)cc1 (stereo not drawn) [Compound 27, α,α,α-Trifluoro-3-(hexyloxy)-2,2,4-trimethyl-p-valerotoluidide]
[2]
  Western Corn Rootworm (1 ppm) rating: 0.0
  Western Corn Rootworm (10 ppm) rating: 0.0
  Western Corn Rootworm (50 ppm) rating: 9.0

## CC(C)C(=O)C(C)(C)C(=O)Nc1ccc(C(F)(F)F)cc1 [Compound 1, α,α,α-Trifluoro-2,2,4-trimethyl-3-oxo-p-valerotoluidide]
[1]
  Southern Corn Rootworm (1 ppm) rating: 9.0
  Southern Corn Rootworm (10 ppm) rating: 9.0
  Southern Corn Rootworm (50 ppm) rating: 9.0

## CC(C)C(=O)C(C)(C)C(=O)N(C)c1ccc(C(F)(F)F)cc1 [Compound 36, α,α,α-Trifluoro-N,2,2,4-tetramethyl-3-oxo-p-valerotoluidide]
[2]
  Western Corn Rootworm (1 ppm) rating: 2.0
  Western Corn Rootworm (10 ppm) rating: 9.0
  Western Corn Rootworm (50 ppm) rating: 9.0

## CC(C)SC(C)(C)C(=O)Nc1ccc(C(F)(F)F)cc1 [Compound 5, α,α,α-Trifluoro-2-(isopropylthio)-2-methyl-p-propionotoluidide]
[1]
  Southern Corn Rootworm (1 ppm) rating: 0.0
  Southern Corn Rootworm (10 ppm) rating: 0.0
  Southern Corn Rootworm (50 ppm) rating: 9.0

## CC(C)(C)C(=O)C(C)(C)C(=O)Nc1ccc(C(F)(F)F)cc1 [Compound 21, α,α,α-Trifluoro-2,2,4,4-tetramethyl-3-oxo-p-valerotoluidide]
[2]
  Western Corn Rootworm (1 ppm) rating: 0.0
  Western Corn Rootworm (10 ppm) rating: 9.0
  Western Corn Rootworm (50 ppm) rating: 9.0

## COC(C(C)C)C(C)(C)C(=O)Nc1ccc(C(F)(F)F)cc1 (stereo not drawn) [Compound 16, α,α,α-Trifluoro-3-methoxy-2,2,4-trimethyl-p-valerotoluidide]
[2]
  Western Corn Rootworm (1 ppm) rating: 0.0
  Western Corn Rootworm (10 ppm) rating: 9.0
  Western Corn Rootworm (50 ppm) rating: 9.0
